Assay results taken from patent publication US11738022B2, “Methods for inducing pupil dilation” (THE REGENTS OF THE UNIVERSITY OF COLORADO, A BODY CORPORATE, priority 2017, dated 2023).

Assays:
[1] = system: pupil; experiment: Pupil dilation measured with Neuroptics pupillometer after α-2 agonist pre-treatment and/or phenylephrine; assay type: in vivo, human
Procedure: Dilation medication used was Phenylephrine hydrochloride 10% (Akorn, Inc). Pupillometer used was a Neuroptics DP-2000 Binocular Pupillometer).
Dilation using phenylephrine hydrochloride 10% was conducted in both eyes of the test subject to use as a control against the other compounds being tested.
After this, dilation using phenylephrine hydrochloride 2.5% or phenylephrine hydrochloride 10% was conducted to investigate the effects of the compound on pupil dilation.
Apracionidine 0.5% was administered in the right eye of the test subject three (3) times a day for 4 days. After this, dilation using phenylephrine hydrochloride 10% was conducted to investigate the effects of the compound on pupil dilation.
After this, dilation using phenylephrine hydrochloride 10% was conducted to investigate the effects of the compound on pupil dilation.
A washout period of multiple months was undertaken in between each experiment.
Pupil measurements were obtained using a Neuroptics pupillometer. Parameters were as follows: Scotopic conditions for 1 second, followed by photopic conditions for 4 seconds (1258.925 lux), followed by scotopic conditions for 10 seconds. This allowed for investigation of scotopic pupil size, photopic pupil size, and scotopic pupil size recovery after the light stimulus concluded.
The pupils of the subject's pretreated right eye and untreated control left eye were then measured under both scotopic and photopic conditions for baseline measurements (FIG. 6A). Photopic conditions consisted of a 4 second window where a light was shining in both eyes simultaneously. […]
The experiment was repeated at a higher dosage wherein the subject was administered a second ophthalmic formulation containing 10% phenylephrine to both eyes. 30 minutes after instillation of 10% phenylephrine, the pupils of the subject were then measured under both scotopic and photopic conditions (FIG. 6C). […] Because the area of a circle is dependent on the radius squared (area of a circle=πr^2), the increase in area that is created from a increasing the pupil dilation size is not linear.
The results were then compared.

[2] = system: α receptors (α2:α1); conditions: affinity ratio; cited from earlier work
[3] = after pre-treatment of right eye only, 3 times a day for 4 days, before phenylephrine
[4] = after pre-treatment of right eye only, 3 times a day for 4 days, before phenylephrine, left eye not treated
[5] = dilation pre and post treatment with α 2 agonist: treated eye vs control measurements of same eye
[6] = non-treated eye dilation compared to treated eye dilation
[7] = photopic conditions (1258.925 lux) after dilation with phenylephrine 10%
[8] = photopic conditions (1258.925 lux) after dilation with phenylephrine 10%, eye without pre-treatment
[9] = right eye pre-treated 3 times a day for 4 days, then phenylephrine 2.5% both eyes (FIG. 6B)
[10] = right eye pre-treated 3 times a day for 4 days, then phenylephrine 2.5% both eyes (FIG. 6B), left eye not pre-treated
[11] = right eye pre-treated 3 times a day for 4 days, then phenylephrine 10% both eyes
[12] = right eye pre-treated 3 times a day for 4 days, then phenylephrine 10% both eyes, left eye not pre-treated

Brc1c(NC2=NCCN2)ccc2nccnc12 [Brimonidine, brimonidine]
dilation speed of pretreated eye vs control eye on return to scotopic conditions ([1]; 30 minutes after 2.5% phenylephrine (FIG. 6B)): more rapidly | dilation speed of pretreated eye vs control eye upon removal of the light ([1]; 30 minutes after 10% phenylephrine (FIG. 6C)): more rapidly | average increase in dilation size in the pretreated eye compared to the control eye ([1]; 30 minutes after 10% phenylephrine both eyes (FIG. 6C)): 36% | dilation speed of pretreated eye upon return to scotopic conditions ([1]; after 4 days pre-treatment, before phenylephrine (FIG. 6A)): much more slowly | increase of surgical work area compared to the pre-treatment control dilation amount in the same eye ([1]; after dilation with phenylephrine hydrochloride 10%): approximately 103% | CH LStim Ave [1, 3]: 69% | CH RPupil Ave [1, 3]: 67% | CH RStim Ave [1, 3]: 69% | CH Right [1, 3]: 67% | CLAT LStim Ave [1, 3]: 0.17 s | CLAT RPupil Ave [1, 3]: 0.18 s | CLAT RStim Ave [1, 3]: 0.17 s | CLAT Right [1, 3]: 0.18 s | DELTA LStim Ave [1, 3]: 4.70 mm | DELTA RPupil Ave [1, 3]: 4.21 mm | DELTA RStim Ave [1, 3]: 4.70 mm | DV LStim Ave [1, 3]: 1.02 mm/s | DV RPupil Ave [1, 3]: 1.00 mm/s | DV RStim Ave [1, 3]: 1.02 mm/s | DV Right [1, 3]: 1.00 mm/s | MCV LStim Ave [1, 3]: 6.57 mm/s | MCV RPupil Ave [1, 3]: 6.76 mm/s | MCV RStim Ave [1, 3]: 6.57 mm/s | Max LStim Ave [1, 3]: 6.86 mm | Max RStim Ave [1, 3]: 6.86 mm | Max Right [1, 3]: 6.27 mm | Min LStim Ave [1, 3]: 2.16 mm | Min RPupil Ave [1, 3]: 2.06 mm | Min RStim Ave [1, 3]: 2.16 mm | Min Right [1, 3]: 2.06 mm | CH LPupil Ave [1, 4]: 70% | CH Left [1, 4]: 70% | CLAT LPupil Ave [1, 4]: 0.17 s | CLAT Left [1, 4]: 0.17 s | DELTA Left [1, 4]: 5.21 mm | DV Left [1, 4]: 1.05 mm/s | MCV Left [1, 4]: 6.38 mm/s | Max Left [1, 4]: 7.46 mm | Min Left [1, 4]: 2.25 mm | Pupil size change (%) [1, 5]: +42.62% | Surgical work area change (%) [1, 5]: +103.4% | Pupil size change (%) [1, 6]: +35.81% | Surgical work area (%) [1, 6]: +84.44% | Pupil size, Treated eye [1, 7]: 5.12 mm | Surgical Work area, Treated eye [1, 7]: 20.58 mm^2 | Pupil size, Non-treated eye [1, 8]: 3.77 mm | Surgical Work area, Non-treated eye [1, 8]: 11.16 mm^2 | dilation of pretreated eye vs control eye ([1]; photopic conditions, 30 minutes after 2.5% phenylephrine (FIG. 6B)): more dilated | dilation of pretreated eye vs control eye ([1]; photopic conditions, 30 minutes after 10% phenylephrine (FIG. 6C)): much more dilated | pupil area, pre-treated eye ([1]; photopic conditions, after 10% phenylephrine (FIG. 6C)): 20.59 mm^2 | pupil area, control eye ([1]; photopic conditions, after 10% phenylephrine (FIG. 6C), eye without pre-treatment): 11.16 mm^2 | increase in surgical workspace ([1]; pre-treated vs control eye, photopic conditions, after 10% phenylephrine): ~85% | CH LStim Ave [1, 9]: 64% | CH RPupil Ave [1, 9]: 61% | CH RStim Ave [1, 9]: 64% | CH Right [1, 9]: 61% | CLAT LStim Ave [1, 9]: 0.19 s | CLAT RPupil Ave [1, 9]: 0.19 s | CLAT RStim Ave [1, 9]: 0.19 s | CLAT Right [1, 9]: 0.19 s | DELTA LStim Ave [1, 9]: 4.98 mm | DELTA RPupil Ave [1, 9]: 4.70 mm | DELTA RStim Ave [1, 9]: 4.98 mm | DV LStim Ave [1, 9]: 1.36 mm/s | DV RPupil Ave [1, 9]: 1.39 mm/s | DV RStim Ave [1, 9]: 1.36 mm/s | DV Right [1, 9]: 1.39 mm/s | MCV LStim Ave [1, 9]: 6.06 mm/s | MCV RPupil Ave [1, 9]: 5.40 mm/s | MCV RStim Ave [1, 9]: 6.06 mm/s | Max LStim Ave [1, 9]: 7.73 mm | Max RStim Ave [1, 9]: 7.73 mm | Max Right [1, 9]: 7.69 mm | Min LStim Ave [1, 9]: 2.75 mm | Min RPupil Ave [1, 9]: 2.99 mm | Min RStim Ave [1, 9]: 2.75 mm | Min Right [1, 9]: 2.99 mm | CH LPupil Ave [1, 10]: 68% | CH Left [1, 10]: 68% | CLAT LPupil Ave [1, 10]: 0.19 s | CLAT Left [1, 10]: 0.19 s | DELTA Left [1, 10]: 5.26 mm | DV Left [1, 10]: 1.33 mm/s | MCV Left [1, 10]: 6.71 mm/s | Max Left [1, 10]: 7.77 mm | Min Left [1, 10]: 2.51 mm | CH LStim Ave [1, 11]: 52% | CH RPupil Ave [1, 11]: 46% | CH RStim Ave [1, 11]: 52% | CH Right [1, 11]: 46% | CLAT LStim Ave [1, 11]: 0.22 s | CLAT RPupil Ave [1, 11]: 0.20 s | CLAT RStim Ave [1, 11]: 0.22 s | CLAT Right [1, 11]: 0.20 s | DELTA LStim Ave [1, 11]: 4.74 mm | DELTA RPupil Ave [1, 11]: 4.28 mm | DELTA RStim Ave [1, 11]: 4.74 mm | DV LStim Ave [1, 11]: 1.06 mm/s | DV RPupil Ave [1, 11]: 1.09 mm/s | DV RStim Ave [1, 11]: 1.06 mm/s | DV Right [1, 11]: 1.09 mm/s | MCV LStim Ave [1, 11]: 4.22 mm/s | MCV RPupil Ave [1, 11]: 4.20 mm/s | MCV RStim Ave [1, 11]: 4.22 mm/s | Max LStim Ave [1, 11]: 9.18 mm | Max RStim Ave [1, 11]: 9.18 mm | Max Right [1, 11]: 9.40 mm | Min LStim Ave [1, 11]: 4.44 mm | Min RPupil Ave [1, 11]: 5.12 mm | Min RStim Ave [1, 11]: 4.44 mm | Min Right [1, 11]: 5.12 mm | CH LPupil Ave [1, 12]: 58% | CH Left [1, 12]: 58% | CLAT LPupil Ave [1, 12]: 0.24 s | CLAT Left [1, 12]: 0.24 s | DELTA Left [1, 12]: 5.19 mm | DV Left [1, 12]: 1.04 mm/s | MCV Left [1, 12]: 4.25 mm/s | Max Left [1, 12]: 8.96 mm | Min Left [1, 12]: 3.77 mm | dilation of pretreated eye vs control eye ([1]; scotopic and photopic conditions, after 4 days pre-treatment, before phenylephrine (FIG. 6A)): less dilated | dilation of pretreated eye vs control eye ([1]; scotopic conditions, 30 minutes after 2.5% phenylephrine (FIG. 6B)): equally dilated | dilation of pretreated eye vs control eye ([1]; scotopic conditions, 30 minutes after 10% phenylephrine (FIG. 6C)): more dilated | α2:α1 affinity [2]: 976
